Reference: US11400059B2, “Treatment of pain and/or pain related symptoms associated with dysmenorrhea” (ALYRA BIOTECH PTY LTD, priority 2017, dated 2022)

Key:
[1] = system: HEK293/Null1 and HEK293/Null2; test: Antagonist screening on TLR−/NLR− control cell lines stimulated with TNFa; type: cell-based; conditions: stimulated with TNFa at 10 ng/mL
Procedure: (§1) Toll-Like Receptor (TLR), NOD-Like Receptor (NLR) and C-Type Lectin Receptor (CLR) stimulation were tested by assessing NF-κB activation in HEK293 cells expressing a given TLR, NLR or CLR. The activity of the test articles was tested at one concentration and compared to control ligands. These steps were performed in triplicate. In a 96-well plate (200 μL total volume) containing the appropriate cells (50,000-75,000 cells/well), 20 μL of the test article or the positive control ligand was added to the wells. For the antagonist assay, the test article was incubated with the cells, at 37° C. with 5% CO2, for 30 minutes prior to the addition of the positive control ligand to the wells. The media added to the wells was designed for the detection of NF-κB induced SEAP expression. After a 16-24 hr incubation the optical density (OD) was read at 650 nm on a Molecular Devices SpectraMax 340PC absorbance detector.

Human TLR4 = target: T1, Human TLR4 (Homo sapiens, UniProt O00206+Q9Y6Y9); test: Human TLR antagonist screening, NF-κB SEAP reporter in HEK293 cells; type: cell-based; conditions: antagonist mode, test article 1 μM, +LPS-EK 10 ng/mL, No Sample 14, Control− 1
T1 construct: expressed in transfected cells; host or cells: HEK293
T1 sequence (O00206 24-839): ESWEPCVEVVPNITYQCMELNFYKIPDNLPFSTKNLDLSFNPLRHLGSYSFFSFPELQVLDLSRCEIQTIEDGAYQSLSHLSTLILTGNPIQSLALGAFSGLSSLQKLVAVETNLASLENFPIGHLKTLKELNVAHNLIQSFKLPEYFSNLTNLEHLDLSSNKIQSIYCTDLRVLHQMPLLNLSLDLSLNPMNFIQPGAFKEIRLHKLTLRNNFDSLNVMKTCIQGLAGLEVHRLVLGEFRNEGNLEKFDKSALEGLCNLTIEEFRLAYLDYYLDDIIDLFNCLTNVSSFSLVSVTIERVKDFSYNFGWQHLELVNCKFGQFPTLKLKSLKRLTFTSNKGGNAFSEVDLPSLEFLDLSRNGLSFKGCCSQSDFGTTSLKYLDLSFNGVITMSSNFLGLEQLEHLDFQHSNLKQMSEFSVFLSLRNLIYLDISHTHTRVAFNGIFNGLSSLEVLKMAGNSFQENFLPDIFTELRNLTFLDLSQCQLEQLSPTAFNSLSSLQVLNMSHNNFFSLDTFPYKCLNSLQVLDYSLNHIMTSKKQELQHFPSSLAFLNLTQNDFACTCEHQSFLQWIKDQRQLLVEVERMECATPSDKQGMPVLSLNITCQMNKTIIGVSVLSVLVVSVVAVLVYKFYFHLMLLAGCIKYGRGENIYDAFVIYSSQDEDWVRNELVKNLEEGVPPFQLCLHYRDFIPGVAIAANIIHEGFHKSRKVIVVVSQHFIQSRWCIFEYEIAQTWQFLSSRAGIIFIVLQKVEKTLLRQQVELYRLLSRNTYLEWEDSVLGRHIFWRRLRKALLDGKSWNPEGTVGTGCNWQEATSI
T1 sequence (Q9Y6Y9 19-160): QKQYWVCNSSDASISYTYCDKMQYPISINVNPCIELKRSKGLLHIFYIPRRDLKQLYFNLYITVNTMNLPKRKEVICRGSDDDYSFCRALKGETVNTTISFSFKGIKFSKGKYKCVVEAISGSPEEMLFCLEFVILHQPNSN
Procedure: as §1, with “triplicate. hTLR4: […]” for “triplicate.”, “detector. Fold induction (ratio of average induced value to average non-induced value) was determined for each TLR, NOD1, NOD2, Dectin-1a, Dectin-1b.” for “detector.”

[2] = system: spinal astrocytes (GFAP) in the dorsal horn of the spinal cord; test: Spinal astrocyte activation (GFAP immunofluorescence) after intrauterine LPS; type: in vivo, mouse (Balb/C); conditions: intrauterine, mixed with LPS 100 μg/kg on first day of estrus and alone the subsequent day, 3 estrous cycles; amitriptyline 28 μg/kg, TAK-242 36 μg/kg; vs LPS
Procedure: Group 1 included twelve mice with 20 μl endotoxin-free saline introduced to the uterus on the first day of estrus and the subsequent day over 3 consecutive estrous cycles. Group 2 included twelve mice with LPS (100 μg/kg) instilled in the uterus on the first day of estrus and saline injected on the subsequent day over 3 consecutive estrous cycles. Group 3 included twelve mice with LPS (100 μg/kg) mixed with amitriptyline (20 μl of a 100 μM solution, equivalent to 28 μg/kg) instilled in the uterus on the first day of estrus, and amitriptyline alone instilled on the subsequent day over 3 consecutive estrous cycles. Group 4 included 14 mice with LPS (100 μg/kg) mixed with TAK-242 (20 μl of a 100 μM solution, equivalent to 36 μg/kg) instilled on the first day of estrus and TAK-242 alone instilled on the subsequent day over 3 consecutive estrous cycles.
The investigation involved the instillation of 20 ul of an endotoxin-free 0.9% saline solution into the uterus of all animals on the first day of estrus and the subsequent day during 3 consecutive estrous cycles. Additional agents added to the saline were included according to the groups outlined below. Where LPS is administered, this was done on only 1 day per estrous cycle.
Where amitriptyline or TAK-242 was administered, this is on both the first day of estrus and the subsequent day.
The spinal cord was assessed using immunohistochemistry techniques across levels T10, T11, T12, T13, L1, L2, L3, L4, L5, L6, S1 and S2 for Groups 1 and 2, where T represents the thoracic segment of the spinal cord, L represents the lumbar segment of the spinal cord and S represents the sacral segment of the spinal cord.
The spinal cord was assessed using immunohistochemistry techniques across levels T12, T13, L1, L2, L3, L4, L5, L6, S and S2 for Groups 3 and 4, where T represents the thoracic segment of the spinal cord, L represents the lumbar segment of the spinal cord and S represents the sacral segment of the spinal cord. […]

human Mincle = target: T2, human Mincle (Homo sapiens, UniProt Q9ULY5); test: Human CLR antagonist screening, NF-κB SEAP reporter in HEK293 cells; type: cell-based; conditions: antagonist mode, Ami 1 μM, +TDB 5 μg/mL, No Sample 6, Control− 1
T2 construct: expressed in transfected cells; host or cells: HEK293
T2 sequence (Q9ULY5 whole entry): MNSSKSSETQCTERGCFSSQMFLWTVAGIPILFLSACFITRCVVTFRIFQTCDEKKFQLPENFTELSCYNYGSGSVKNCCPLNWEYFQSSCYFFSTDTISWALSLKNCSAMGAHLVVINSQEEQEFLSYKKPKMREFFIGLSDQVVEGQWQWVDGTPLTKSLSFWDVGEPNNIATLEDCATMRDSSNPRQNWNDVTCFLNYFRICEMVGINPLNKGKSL
Procedure: Toll-Like Receptor (TLR), NOD-Like Receptor (NLR) and C-Type Lectin Receptor (CLR) stimulation were tested by assessing NF-κB activation in HEK293 cells expressing a given TLR, NLR or CLR. The activity of the test articles was tested at one concentration and compared to control ligands. These steps were performed in triplicate.
hMincle: Trehalose-6,6-dibehenate (TDB) at 10 μg/mL Antagonist: 5 μg/mL.
In a 96-well plate (200 μL total volume) containing the appropriate cells (50,000-75,000 cells/well), 20 μL of the test article or the positive control ligand was added to the wells. For the antagonist assay, the test article was incubated with the cells, at 37° C. with 5% CO2, for 30 minutes prior to the addition of the positive control ligand to the wells. The media added to the wells was designed for the detection of NF-κB induced SEAP expression. After a 16-24 hr incubation the optical density (OD) was read at 650 nm on a Molecular Devices SpectraMax 340PC absorbance detector.

| Compound | effect on TLR−/NLR− control cell lines [1] | Fold Induction (Human TLR4) | astrocytic reactivity (GFAP staining), impact of intrauterine LPS at multiple levels of the spinal cord [2] | Fold Induction (Human TLR4; listed as Ami) | Fold Induction (human Mincle) | Fold Induction (human Mincle; listed as Ami) |
| --- | --- | --- | --- | --- | --- | --- |
| CNCCC=C1c2ccccc2CCc2ccccc21 [Nortriptyline] | slight inhibitory effect | 14 | – | – | – | – |
| CN(C)CCC=C1c2ccccc2CCc2ccccc21 [Amitriptyline] | slight inhibitory effect | slight inhibitory effect | reduced astrocytic reactivity to below basal levels | 12 | slight inhibitory effect | 5 |
